This passage reports bioavailability and IC50 results from US11306064B2, “Benzothia(di)azepine compounds and their use as bile acid modulators” (Albireo AB, priority 2018, dated 2022).

A short description of series [1]: Bioavailability studies in mice. Type of series: in vivo. Conditions: mouse; C57BL/6 mice; single intravenous dose 1 mg/kg vs single oral dose 10 mg/kg; plasma LC-MS/MS. The method, then:
C57BL/6 mice of 8-9 weeks old were used. For each test compound, two groups of 3 animals each were used. One group was administered a single intravenous dose of 1 mg/kg (vehicle 100% DMSO) through the tail vein and the other group was administered a single oral dose of 10 mg/kg through gavage needle. The group that was administered an oral dose was fasted overnight. Blood samples were collected after 0.083, 0.25, 0.5, 1, 2, 4, 6, 8 and 24 hours following intravenous administration, and after 0.25, 0.5, 1, 2, 4, 6, 8 and 24 hours following oral administration. Blood samples were taken from saphenous vein. 0.2% EDTA was used as the anticoagulant. The samples were analyzed by a discovery grade bioanalytical method developed for the estimation of test compound in plasma, using an LC-MS/MS system.

For the next series, the target named is T1, Human LBAT (Homo sapiens, UniProt Q14973).
T1 construct: expressed in transfected cells; kept under Geneticin selection
T1 sequence (Q14973 1-349): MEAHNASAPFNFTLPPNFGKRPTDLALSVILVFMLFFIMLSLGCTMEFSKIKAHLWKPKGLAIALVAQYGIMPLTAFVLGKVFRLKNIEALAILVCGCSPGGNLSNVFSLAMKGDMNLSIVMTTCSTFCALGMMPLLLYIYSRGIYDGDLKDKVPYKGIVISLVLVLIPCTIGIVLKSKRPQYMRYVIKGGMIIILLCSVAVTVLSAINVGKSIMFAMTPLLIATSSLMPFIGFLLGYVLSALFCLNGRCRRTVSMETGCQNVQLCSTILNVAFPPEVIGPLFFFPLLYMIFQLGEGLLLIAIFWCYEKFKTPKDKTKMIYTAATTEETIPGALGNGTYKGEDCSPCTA
Kind of series: LBAT (h/m) assay: 3H-taurocholic acid uptake in human LBAT-overexpressing cells. Format: cell-based. The settings on record: 0.3 μM 3H-taurocholic acid and 7.5 μM cold taurocholic acid, 20 minutes, read-out: hLBAT IC50. The procedure, abridged:
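LBAT-overexpressing cells, serum-free MEM-alpha, 20 min at 37° C with inhibitor (3-fold, 10-point) plus 0.3 μM 3H-taurocholic acid and cold taurocholic acid (7.5 μM human; 25 μM mouse), 0.2% DMSO. Stopped on ice, washed with 1 mM unlabelled taurocholate; uptake by scintillation counting.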

Another series relates to HepaRG cells. The experiment in a line: HepaRG-based assay: 3H-taurocholic acid uptake in differentiated HepaRG cells. Type of series: cell-based. Conditions: Homo sapiens, HepaRG, 0.3 μM 3H-taurocholic acid and 7.5 μM cold taurocholic acid, 30 minutes. The procedure, abridged:
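Differentiated HepaRG cells cultured 7 days post-seeding were exposed for 30 min at 37 °C to 0.3 μM 3H-taurocholic acid plus 7.5 μM cold taurocholic acid with inhibitor (3-fold dilutions, 0.2% DMSO). Uptake was stopped on ice, washed with 1 mM unlabelled taurocholic acid, and counted by scintillation.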

The target in another series is T2, Human ASBT (Homo sapiens, UniProt Q12908).
T2 construct: expressed in transfected cells; kept under Puromycin selection
T2 sequence (Q12908 1-348): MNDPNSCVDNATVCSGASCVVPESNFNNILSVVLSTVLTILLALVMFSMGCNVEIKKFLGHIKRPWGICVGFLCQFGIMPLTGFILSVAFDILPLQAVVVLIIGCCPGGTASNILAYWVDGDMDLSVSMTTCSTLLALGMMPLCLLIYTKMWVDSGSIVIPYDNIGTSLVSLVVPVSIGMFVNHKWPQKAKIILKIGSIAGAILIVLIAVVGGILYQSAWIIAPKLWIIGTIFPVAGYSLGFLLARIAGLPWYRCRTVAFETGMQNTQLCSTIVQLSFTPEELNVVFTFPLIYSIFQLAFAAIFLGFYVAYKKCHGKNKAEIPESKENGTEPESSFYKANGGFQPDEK
The experiment in a line: ASBT (h/m) assay: 3H-taurocholic acid uptake in human ASBT-overexpressing cells. Format: cell-based. Conditions: 0.25 μM 3H-taurocholic acid and 5 μM cold taurocholic acid, 20 minutes, read-out: hASBT IC50. Put shortly:
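ASBT-overexpressing cells, seeded 48 h earlier, took up 0.25 µM 3H-taurocholic acid plus 5 µM cold taurocholate for 20 min at 37 °C with inhibitor (10-point 3-fold series, top 10 µM, 0.2% DMSO). Ice stop, washes with cold 1 mM taurocholate in HEPES-HBSS pH 7.4, scintillation counting.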

`CCCC[C@@]1(CC)CN(c2ccccc2)c2cc(SC)c(O/C=C(\F)C(=O)O)cc2S(=O)(=O)N1C` (single isomer, unassigned) [Example 99]: the bioavailability in series [1] worked out at 20%. The IC50 at Human LBAT was 4.4 nM; with HepaRG cells, 325 nM.

Take `CCCCC1(CC)CN(c2ccc(C(=O)NC(C)(C)C)cc2)c2cc(SC)c(O/C=C/C(=O)O)cc2S(=O)(=O)C1` (stereo not drawn) [Example 62, (E)-3-((3-butyl-5-(4-(tert-butylcarbamoyl)phenyl)-3-ethyl-7-(methylthio)-1,1-dioxido-2,3,4,5-tetrahydro-1,5-benzothiazepin-8-yl)oxy)acrylic Acid]: the results for the IC50 at Human ASBT, on Human LBAT and with HepaRG cells were above 20000 nM, 235 nM and 772 nM, respectively.

As to `CCC1(CC)CN(c2ccc(NCc3ccccc3)cc2)c2cc(SC)c(O/C=C(\F)C(=O)O)cc2S(=O)(=O)C1` [Example 66, (Z)-3-((5-(4-(benzylamino)phenyl)-3,3-diethyl-7-(methylthio)-1,1-dioxido-2,3,4,5-tetrahydro-1,5-benzothiazepin-8-yl)oxy)-2-fluoroacrylic Acid], the values for the IC50 on Human ASBT, on Human LBAT and in the series on HepaRG cells were 2760 nM, 30 nM and 518 nM, respectively.

In the case of `CCCCC1(CCCC)CN(c2ccc(C(=O)NC(C)(C)C)cc2)c2cc(SC)c(O/C=C/C(=O)O)cc2S(=O)(=O)C1` [Example 68, (E)-3-((3,3-dibutyl-5-(4-(tert-butylcarbamoyl)phenyl)-7-(methylthio)-1,1-dioxido-2,3,4,5-tetrahydro-1,5-benzothiazepin-8-yl)oxy)acrylic Acid], the IC50 at Human ASBT was 6670 nM; at Human LBAT, 130 nM; in the series on HepaRG cells, 344 nM.

With `CCCCC1(CCCC)CN(c2ccc(C(=O)NC(C)C)cc2)c2cc(SC)c(O/C=C/C(=O)O)cc2S(=O)(=O)C1` [Example 69, (E)-3-((3,3-dibutyl-5-(4-(isopropylcarbamoyl)phenyl)-7-(methylthio)-1,1-dioxido-2,3,4,5-tetrahydro-1,5-benzothiazepin-8-yl)oxy)acrylic Acid], the values for the IC50 at Human ASBT, on Human LBAT and with HepaRG cells were above 3000 nM, 364 nM and 630 nM, respectively.

On to `CCCCC1(CCCC)CN(c2ccccc2)c2cc(SCC)c(O/C=C(\F)C(=O)O)cc2S(=O)(=O)C1` [Example 70, (Z)-3-((3,3-dibutyl-7-(ethylthio)-1,1-dioxido-5-phenyl-2,3,4,5-tetrahydro-1,5-benzothiazepin-8-yl)oxy)-2-fluoroacrylic Acid], for which the IC50 at Human ASBT was 125 nM; at Human LBAT, 81 nM; with HepaRG cells, 716 nM.

`CCCCC1(CCCC)CN(c2ccc(NC(=O)CC)cc2)c2cc(SC)c(O/C=C(\F)C(=O)O)cc2S(=O)(=O)C1` [Example 71, (Z)-3-((3,3-dibutyl-7-(methylthio)-1,1-dioxido-5-(4-propionamidophenyl)-2,3,4,5-tetrahydro-1,5-benzothiazepin-8-yl)oxy)-2-fluoroacrylic Acid]: the IC50 at Human ASBT was above 3000 nM; on Human LBAT, 47 nM; in the series with HepaRG cells, 296 nM.

Regarding `CCCCC1(CC)CN(c2ccccc2)c2cc(SCC)c(O/C=C(\F)C(=O)O)cc2S(=O)(=O)C1` (stereo not drawn) [Example 72, (Z)-3-((3-butyl-3-ethyl-7-(ethylthio)-1,1-dioxido-5-phenyl-2,3,4,5-tetrahydro-1,5-benzothiazepin-8-yl)oxy)-2-fluoroacrylic Acid], the IC50 on Human ASBT was found to be 76 nM; on Human LBAT, 13 nM; in the series with HepaRG cells, 319 nM.

In the case of `CCCCC1(CC)CN(c2ccccc2)c2cc(SCC)c(O/C=C/C(=O)O)cc2S(=O)(=O)C1` (stereo not drawn) [Example 73, (E)-3-((3-butyl-3-ethyl-7-(ethylthio)-1,1-dioxido-5-phenyl-2,3,4,5-tetrahydro-1,5-benzothiazepin-8-yl)oxy)acrylic Acid], the figures for the IC50 at Human ASBT, at Human LBAT and with HepaRG cells were 155 nM, 120 nM and 766 nM, respectively.

`CCCCC1(CCCC)CN(c2ccccc2)c2cc(SC)c(O/C=C(\C)C(=O)O)cc2S(=O)(=O)N1` [Example 74, (E)-3-((3,3-dibutyl-7-(methylthio)-1,1-dioxido-5-phenyl-2,3,4,5-tetrahydro-1,2,5-benzothiadiazepin-8-yl)oxy)-2-methylacrylic Acid]: the half-inhibitory concentration (IC50) at Human ASBT is 57 nM; at Human LBAT, 649 nM; in the series on HepaRG cells, 3380 nM.

For `CCCCC1(CCCC)CN(c2ccc(C(=O)NC(C)(C)C)cc2)c2cc(SC)c(O/C=C(\F)C(=O)O)cc2S(=O)(=O)C1` [Example 79, (Z)-3-((3,3-dibutyl-5-(4-(tert-butylcarbamoyl)phenyl)-7-(methylthio)-1,1-dioxido-2,3,4,5-tetrahydro-1,5-benzothiazepin-8-yl)oxy)-2-fluoroacrylic Acid], the 50% inhibitory concentration (IC50) on Human ASBT is above 1000 nM; on Human LBAT, 8 nM; in the series with HepaRG cells, 246 nM.

As for `CCCCC1(CC)CN(c2ccccc2)c2cc(Br)c(O/C=C/C(=O)O)cc2S(=O)(=O)N1` (stereo not drawn) [Example 87, (E)-3-((7-bromo-3-butyl-3-ethyl-1,1-dioxido-5-phenyl-2,3,4,5-tetrahydro-1,2,5-benzothiadiazepin-8-yl)oxy)acrylic Acid], the concentration for half-maximal inhibition (IC50) at Human ASBT was 157 nM; at Human LBAT, 220 nM; in the series with HepaRG cells, 1080 nM.

Take `CCCCC1(CCCC)CN(c2ccc(O)cc2)c2cc(SC)c(O/C=C(\F)C(=O)O)cc2S(=O)(=O)C1` [Example 95, (Z)-3-((3,3-dibutyl-5-(4-hydroxyphenyl)-7-(methylthio)-1,1-dioxido-2,3,4,5-tetrahydro-1,5-benzothiazepin-8-yl)oxy)-2-fluoroacrylic Acid]: the IC50 was 17 nM on Human ASBT, 77 nM on Human LBAT and 1220 nM in the series with HepaRG cells.

For `CCCCC1(CC)CN(c2ccccc2)c2cc(F)c(O/C=C(\F)C(=O)O)cc2S(=O)(=O)C1` (stereo not drawn) [Example 96, (Z)-3-((3-butyl-3-ethyl-7-fluoro-1,1-dioxido-5-phenyl-2,3,4,5-tetrahydro-1,5-benzothiazepin-8-yl)oxy)-2-fluoroacrylic Acid], the IC50 at Human ASBT was determined as 15 nM; at Human LBAT, 231 nM; with HepaRG cells, 785 nM.

For `CCCCC1(CC)CN(c2ccccc2)c2cc(Br)c(O/C=C(\F)C(=O)O)cc2S(=O)(=O)N1C` (stereo not drawn) [Example 106, (Z)-3-((7-bromo-3-butyl-3-ethyl-2-methyl-1,1-dioxido-5-phenyl-2,3,4,5-tetrahydro-1,2,5-benzothiadiazepin-8-yl)oxy)-2-fluoroacrylic Acid], the IC50 on Human ASBT came to 673 nM; at Human LBAT, 31 nM; in the series on HepaRG cells, 246 nM.

For `CCCCC1(CCCC)CN(c2ccc(F)c(F)c2)c2cc(SC)c(O/C=C(\F)C(=O)O)cc2S(=O)(=O)C1` [Example 107, (Z)-3-((3,3-dibutyl-5-(3,4-difluorophenyl)-7-(methylthio)-1,1-dioxido-2,3,4,5-tetrahydro-1,5-benzothiazepin-8-yl)oxy)-2-fluoroacrylic Acid], the IC50 on Human ASBT amounted to 59 nM; on Human LBAT, 50 nM; in the series with HepaRG cells, 365 nM.

`CCCCC1(CC)CN(c2ccccc2)c2cc(N(C)C)c(O/C=C(\F)C(=O)O)cc2S(=O)(=O)C1` (stereo not drawn) [Example 108, (Z)-3-((3-butyl-7-(dimethylamino)-3-ethyl-1,1-dioxido-5-phenyl-2,3,4,5-tetrahydro-1,5-benzothiazepin-8-yl)oxy)-2-fluoroacrylic Acid]: the IC50 at Human ASBT stood at 8.5 nM; on Human LBAT, 5.9 nM; in the series on HepaRG cells, 447 nM.

The term bioavailability denotes dose-corrected exposure relative to a reference, in per cent. The IC50 is the concentration that gives 50% inhibition.
